Assay results: patent US20230167073A1 (Teijin Pharma Limited, priority 2020, published 2023)

Target: T1, Human TRPC6 (Homo sapiens, UniProt Q9Y210)
T1 construct: expressed in transfected cells
T1 sequence (Q9Y210 1-931): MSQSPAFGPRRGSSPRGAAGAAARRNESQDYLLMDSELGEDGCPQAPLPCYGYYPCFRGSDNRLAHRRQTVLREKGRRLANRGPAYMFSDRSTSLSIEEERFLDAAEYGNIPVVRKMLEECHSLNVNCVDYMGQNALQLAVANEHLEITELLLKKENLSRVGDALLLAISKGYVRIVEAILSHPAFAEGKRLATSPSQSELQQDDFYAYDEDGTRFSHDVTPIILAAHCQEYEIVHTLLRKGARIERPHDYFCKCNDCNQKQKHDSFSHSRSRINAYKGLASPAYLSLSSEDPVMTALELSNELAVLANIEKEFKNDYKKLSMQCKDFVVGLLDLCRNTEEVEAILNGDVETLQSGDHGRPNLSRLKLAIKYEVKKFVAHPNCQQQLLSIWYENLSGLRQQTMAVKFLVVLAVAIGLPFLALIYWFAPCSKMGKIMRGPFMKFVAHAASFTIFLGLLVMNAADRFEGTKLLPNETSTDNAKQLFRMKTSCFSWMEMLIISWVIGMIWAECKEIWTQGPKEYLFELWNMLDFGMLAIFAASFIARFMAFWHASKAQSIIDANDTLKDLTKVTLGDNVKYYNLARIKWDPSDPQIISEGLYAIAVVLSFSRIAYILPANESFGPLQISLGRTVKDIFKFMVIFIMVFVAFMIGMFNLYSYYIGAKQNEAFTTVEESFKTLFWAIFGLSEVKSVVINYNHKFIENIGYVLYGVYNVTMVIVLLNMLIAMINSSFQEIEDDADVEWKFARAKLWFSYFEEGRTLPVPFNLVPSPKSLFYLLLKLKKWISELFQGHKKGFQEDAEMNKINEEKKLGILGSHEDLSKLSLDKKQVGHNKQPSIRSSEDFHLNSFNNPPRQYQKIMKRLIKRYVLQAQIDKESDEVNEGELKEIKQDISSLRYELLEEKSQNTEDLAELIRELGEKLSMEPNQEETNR
Experiment: Evaluation of TRPC6 channel inhibitory activity (1), FLIPR Calcium 5 Assay Kit, OAG stimulation (Compound Nos. 1-1293)
Format: cell-based
Conditions: Human TRPC6 stably-expressing cells, OAG 30 μM, FLIPR Calcium 5 Assay Kit; read-out: Inhibitory activity (pIC50 class) (converted)
In short: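 Cells stably expressing human TRPC6, plated 24 h before, were loaded 30 min with Calcium 5 dye plus probenecid in HEPES-HBSS. Compound was added 20 min before OAG (30 μM final) and fluorescence tracked on FLIPR. Inhibition normalised to no-compound and no-compound/no-OAG wells; pIC50 from four-parameter fit, reported as +/++/+++ categories.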

IC50 [nM]	Structure (SMILES)
10 to 1000	Cc1nc(C(=O)c2cc(F)ccc2-c2ncc(CCN)cn2)cc(N2CCOCC2)n1 [compound 1103, [2-[5-(2-aminoethyl)pyrimidin-2-yl]-5-fluorophenyl]-(2-methyl-6-morpholin-4-ylpyrimidin-4-yl)methanone]
10 to 1000	CC(C)Cn1cc(Cc2cc(F)ccc2-c2ccc(CCN)cn2)cn1 [compound 1221, 2-[6-[4-fluoro-2-[[1-(2-methylpropyl)pyrazol-4-yl]methyl]phenyl]pyridin-3-yl]ethanamine]
10 to 1000	Cn1nc(-c2ccccc2)cc1Oc1nc(Cl)ccc1-c1ccc(CCN)cn1 [compound 1292, 2-[6-[6-chloro-2-(2-methyl-5-phenylpyrazol-3-yl)oxypyridin-3-yl]pyridin-3-yl]ethanamine]
< 10	Cn1nc(C(F)(F)F)cc1Oc1cc(C#N)ccc1-c1ncc(CCN)cn1 [compound 812, 4-[5-(2-aminoethyl)pyrimidin-2-yl]-3-[2-methyl-5-(tritluoromethyl)pyrazol-3-yl]oxybenzonitrile]
< 10	Cc1nc(-c2ccccc2)cn1Cc1cc(C#N)ccc1-c1ncc(CCN)cn1 [compound 1137, 4-[5-(2-aminoethyl)pyrimidin-2-yl]-3-[(2-methyl-4-phenylimidazol-1-yl)methyl]benzonitrile]
< 10	Cn1nc(N(CCF)CCF)cc1Oc1cc(C#N)ccc1-c1ncc(CCN)cn1 [compound 823, 4-[5-(2-aminoethyl)pyrimidin-2-yl]-3-[5-[bis(2-fluoroethyl)amino]-2-methylpyrazol-3-yl]oxybenzonitrile]
> 1000	Cc1cc(Oc2cc(C#N)ccc2-c2ccc(CC(C)(C)NCC(=O)N(C)C)cn2)cc(N2CCOCC2)n1 [compound 840, 2-[[1-[6-[4-cyano-2-(2-methyl-6-morpholin-4-ylpyridin-4-yl)oxyphenyl]pyridin-3-yl]-2-methylpropan-2-yl]amino]-N,N-dimethylacetamide]
< 10	Cn1nc(C(F)(F)F)cc1Oc1cc(C#N)ccc1-c1ncc([C@@H](F)CN)cn1 [compound 904, 4-[5-[(1R)-2-amino-1-fluoroethyl]pyrimidin-2-yl]-3-[2-methyl-5-(trifluoromethyl)pyrazol-3-yl]oxybenzonitrile]
< 10	Cn1nc(N2CCCCC2)cc1Cc1cc(C#N)ccc1-c1ncc(CCN)cn1 [compound 1218, 4-[5-(2-aminoethyl)pyrimidin-2-yl]-3-[(2-methyl-5-piperidin-1-ylpyrazol-3-yl)methyl]benzonitrile]
10 to 1000	Cc1nc(Oc2cc(F)ccc2-c2ncc(CCN)cn2)cc(N2CCOCC2)n1 [compound 965, 2-[2-[4-fluoro-2-(2-methyl-6-morpholin-4-ylpyrimidin-4-yl)oxyphenyl]pyrimidin-5-yl]ethanamine]
10 to 1000	Cc1c(Oc2cc(C#N)ccc2-c2ncc(CCN)cn2)cnn1CC(C)(C)C [compound 938, 4-[5-(2-aminoethyl)pyrimidin-2-yl]-3-[1-(2,2-dimethylpropyl)-5-methylpyrazol-4-yl]oxybenzonitrile]
10 to 1000	Cc1csc(-c2cc(Oc3cc(C#N)ccc3-c3ncc(CN)cn3)n(C)n2)n1 [compound 959, 4-[5-(aminomethyl)pyrimidin-2-yl]-3-[2-methyl-5-(4-methyl-1,3-thiazol-2-yl)pyrazol-3-yl]oxybenzonitrile]

The next lines start with the molecule.

Structure (SMILES)	IC50 [nM]
Cc1nc(Oc2cc(C#N)ccc2-n2cc(C(O)CN)cn2)cc(-c2ccc(F)cc2)n1 (stereo not drawn) [Compound 140, 4-[4-(2-amino-1-hydroxyethyl)pyrazol-1-yl]-3-[6-(4-fluorophenyl)-2-methylpyrimidin-4-yl]oxybenzonitrile]	10 to 1000
Cc1nc(Oc2cc(C#N)ccc2-n2cc(C(O)CN)cn2)cc(-c2cccc(F)c2)n1 (stereo not drawn) [Compound 141, 4-[4-(2-amino-1-hydroxyethyl)pyrazol-1-yl]-3-[6-(3-fluorophenyl)-2-methylpyrimidin-4-yl]oxybenzonitrile]	10 to 1000
N#Cc1ccc(-c2ccc(CCN)cn2)c(Oc2cc(Cl)cnn2)c1 [Compound 88, 4-[5-(2-aminoethyl)pyridin-2-yl]-3-(5-chloropyridazin-3-yl)oxybenzonitrile]	> 1000
Cc1nc(NC2CC2)cc(Oc2cc(C#N)ccc2-c2ncc(CN)cn2)n1 [compound 633, 4-[5-(aminomethyl)pyrimidin-2-yl]-3-[6-(cyclopropylamino)-2-methylpyrimidin-4-yl]oxybenzonitrile]	10 to 1000
Cc1cc(Oc2cc(C#N)ccc2-c2ncc(C(C)N)cn2)cc(N2CCOCC2)n1 (stereo not drawn) [compound 701]	< 10
Cn1nc(C2CC2)cc1Oc1cc(C#N)ccc1-c1ccc(NC(=O)C2CCNCC2)cn1 [compound 781, N-[6-[4-cyano-2-(5-cyclopropyl-2-methylpyrazol-3-yl)oxyphenyl]pyridin-3-yl]piperidine-4-carboxamide]	> 1000
Cn1nc(C2CCOC2)cc1Oc1cc(C#N)ccc1-c1ncc(CCN)cn1 (stereo not drawn) [compound 495, 4-[5-(2-aminoethyl)pyrimidin-2-yl]-3-[2-methyl-5-(oxolan-3-yl)pyrazol-3-yl]oxybenzonitrile]	10 to 1000
Cn1nc(-c2ccccc2OCc2ccccc2)cc1Oc1cc(C#N)ccc1-c1ccc(C(O)CN)cn1 (stereo not drawn) [compound 322, 4-[5-(2-amino-1-hydroxyethyl)pyridin-2-yl]-3-[2-methyl-5-(2-phenylmethoxyphenyl)pyrazol-3-yl]oxybenzonitrile]	10 to 1000
Cc1nc(Oc2cc(C#N)ccc2-c2ccc(C(O)CN(C)C)cc2)cc(N2CCOCC2)n1 (stereo not drawn) [Compound 106, 4-[4-[2-(dimethylamino)-1-hydroxyethyl]phenyl]-3-(2-methyl-6-morpholin-4-ylpyrimidin-4-yl)oxybenzonitrile]	> 1000
Cn1nc(-c2ccccc2)cc1Oc1cc(C#N)ccc1-n1cc(C(O)CN)cn1 (stereo not drawn) [Compound 204, 4-[4-(2-amino-1-hydroxyethyl)pyrazol-1-yl]-3-(2-methyl-5-phenylpyrazol-3-yl)oxybenzonitrile]	< 10
Cc1nc(Oc2cc(C#N)ccc2-c2ncc(CCN)cn2)cc(N2CCOCC2)n1 [compound 434, 4-[5-(2-aminoethyl)pyrimidin-2-yl]-3-(2-methyl-6-morpholin-4-ylpyrimidin-4-yl)oxybenzonitrile]	< 10
Cn1nc(C2CC2)cc1Oc1cc(C#N)ccc1-c1cc(CCN)ccn1 [compound 482, 4-[4-(2-aminoethyl)pyridin-2-yl]-3-(5-cyclopropyl-2-methylpyrazol-3-yl)oxybenzonitrile]	< 10
Cn1nc(-c2ccccn2)cc1Oc1cc(C#N)ccc1-c1ccc(CN)n2ccnc12 [compound 522, 4-[5-(aminomethyl)imidazo[1,2-a]pyridin-8-yl]-3-(2-methyl-5-pyridin-2-ylpyrazol-3-yl)oxybenzonitrile]	< 10
Cc1cc(Oc2cc(C#N)ccc2-c2ccc(C(O)C(C)(C)N)cn2)cc(N2CCOCC2)n1 (stereo not drawn) [compound 303, 4-[5-(2-amino-1-hydroxy-2-methylpropyl)pyridin-2-yl]-3-(2-methyl-6-morpholin-4-ylpyridin-4-yl)oxybenzonitrile]	10 to 1000
Cn1nc(-c2ccccc2)cc1Oc1nc(C#N)ccc1-c1ccc(CCN)cn1 [Compound No. 1279, 5-[5-(2-Aminoethyl)pyridin-2-yl]-6-(2-methyl-5-phenylpyrazol-3-yl)oxypyridine-2-carbonitrile]	< 10
